Assay results: patent publication EP0448343A2, “Lipopeptide derivatives” (MERCK & CO. INC., priority 1990, dated 1991)
Counter-ions that a name gives are not always drawn.

Key:
[1] = test system: Pneumocystis carinii; assay: Pneumocystis carinii pneumonia in immunosuppressed rats; format: in vivo, Sprague-Dawley rats; conditions: eliminating P. carinii cysts in four days, dexasone-immunosuppressed rats, microscopic analysis of stained lung slides
Method: In a representative study, the effectiveness of Compound A-1a was determined. Sprague-Dawley rats (weighing approximately 250 grams) were immunosuppressed with dexasone in the drinking water (2.0 mg/L) and maintained on a low protein diet for five weeks to induce the development of pneumocystis pneumonia from a latent infection. […] Six rats (weighing approximately 150 grams) were injected twice daily for four days intravenously (I.V.) via the tail vein with Compound A-1a in 0.25 ml of vehicle (distilled water). A vehicle control was also carried out. All animals continued to receive dexasone in the drinking water and low protein diet during the treatment period. At the completion of the treatment, all animals were sacrificed, the lungs were removed and processed, and the extent of disease determined by microscopic analysis of stained slides.
In a similar experiment, except that the rats were injected intraperitoneally (I.P.) twice daily for four days, the animals were sacrificed, the lungs removed and processed, and the extent of disease determined by microscopic analysis of stained slides.

[2] = Solubility in water; format: physicochemical

Structure (SMILES)	ED₉₀ ([1]; injected twice daily for four days intravenously (I.V.) via the tail vein)	solubility in water [2]	ED₉₀ ([1]; injected intraperitoneally (I.P.) twice daily for four days)	solubility [2]
CCC(C)CC(C)CCCCCCCCC(=O)NC1CC(O)C(O)NC(=O)C2C(O)CCN2C(=O)C(C(O)CC(N)=O)NC(=O)C(C(O)C(O)c2ccc(OP(=O)(O)O)cc2)NC(=O)C2CC(O)CN2C(=O)C(C(C)O)NC1=O (stereo not shown) [Compound A-1a, 1-[4,5-dihydroxy-N2-(10,12-dimethyl-1-oxotetradecyl)-ornithine-4-[3,4-dihydroxy-4′-O-phosphoryl-homotyrosine]-5-[3-hydroxyglutamine]-6-[3-hydroxyproline]-echinocandin B disodium salt]	approximately 0.6 mg/kg	> 40 mg/mL		
CCC(C)CC(C)CCCCCCCCC(=O)NC1CC(O)CNC(=O)C2C(O)CCN2C(=O)C(C(O)CC(N)=O)NC(=O)C(C(O)C(O)c2ccc(OP(=O)(O)O)cc2)NC(=O)C2CC(O)CN2C(=O)C(C(C)O)NC1=O (stereo not shown) [Compound A-2a, 1-[4-hydroxy-N2-(10,12-dimethyl-1-oxotetradecyl)-ornithine]-4-[3-hydroxy-4′-O-phosphoryl-homotyrosine]-5-[3-hydroxyglutamine]-6-[3-hydroxyproline]echinocandin B disodium salt]			approximately 0.6 mg/kg	> 85 mg/mL
